Drawing on PubChem BioAssay (NCI), this text covers TGI and GI50 for 13 molecules.

Test in all cases: inhibition of tumour cell growth, NCI panel, 48 h
The subject of experiment [1] is DMS 114 small cell lung.
The subject of experiment [2] is M14 melanoma.
Experiment [3] concerns XF 498 CNS.
In experiment [4] the test system is K-562 leukemia.
Experiment [5] relates to RXF-631 renal.
The subject of experiment [6] is SNB-78 CNS.
For experiment [7], the system named is HCT-116 colon.
Experiment [8] relates to SK-OV-3 ovarian.
For experiment [9], the system named is LXFL 529 NSCLC.
Experiment [10] relates to UO-31 renal.
Experiment [11] concerns DMS 273 small cell lung.
Experiment [12] relates to OVCAR-4 ovarian.
In experiment [13] the test system is UACC-62 melanoma.
For experiment [14], the system named is M19-MEL melanoma.
The test system of experiment [15] is DLD-1 colon.
The test system of experiment [16] is HOP-18 NSCLC.

Values joined by “and” are separate entries in the source; they are usually repeats but may differ in a detail not shown here. Equal values may be shown once.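 Each compound was tested at five concentrations against cells in 96-well plates for 48 hours. GI50: concentration for 50% inhibition of growth. Definition used: TGI = concentration required for complete inhibition of growth.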

Regarding `CC(=O)NC(CCCNC(=O)N(C)N=O)C(=O)NCc1ccccc1` (stereo not given), the TGI in experiment [1], in experiment [2], in experiment [3], in experiment [4], in experiment [5] and in [6] was over 100 µM each time. For the same molecule, the TGI in [7], in [8], in experiment [9], in experiment [10], in experiment [11] and in [12] was over 100 µM each time. Also, the TGI in experiment [13], in experiment [14] and in experiment [15] was over 100 µM throughout.
For `O=C1CCC2(c3ccc(Cl)cc3)Nc3ccccc3N12` (stereo not given), the TGI in experiment [1], in experiment [3], in [4], in [5], in [6] and in experiment [7] was over 100 µM in each case. Moreover, the TGI in experiment [9], in experiment [10], in experiment [12], in [16], in [14] and in experiment [15] was over 100 µM throughout.
Turning to `COc1ccc(OC2(c3cc(OC)ccc3OC)OC(=O)c3ccccc32)cc1` (stereo not given), the TGI in [1], in experiment [2], in [4], in experiment [5], in [6] and in experiment [7] was over 100 µM in each case. Besides, the TGI in experiment [8], in experiment [9], in experiment [10], in experiment [11], in experiment [12] and in [16] was over 100 µM throughout. The TGI in experiment [13], in [14] and in [15] was over 100 µM in each case.
In the case of `N=S(c1ccccc1[N+](=O)[O-])c1ccccc1[N+](=O)[O-]`, the TGI in [2] was 8.88 µM and 16.4 µM; in [3] it was 11.5 µM and 6.15 µM; in [4], 7.29 µM; in [5], 3.43 µM; in experiment [6] it was 9.2 µM and 8.28 µM; in experiment [7], 3.28 µM and 3.58 µM. Besides, the TGI in experiment [8] is 17 µM and 15.7 µM; in experiment [9] it was 7.83 µM and 5.92 µM; in experiment [10], 3.94 µM and 7.44 µM; in experiment [11] it was 5.15 µM and 7.87 µM; in experiment [12], 2.05 µM and 1.11 µM; in [16], 19.5 µM and 15.8 µM. Further, the TGI in experiment [13] is 9.13 µM and 10.2 µM; in experiment [14], 12.3 µM and 6.84 µM; in experiment [15], 4.15 µM and 2.08 µM. For the same molecule, the GI50 was 4.84 µM and 2.14 µM in experiment [3]; 2.19 µM in [4]; 1.81 µM and 0.636 µM in experiment [15].
For the molecule `CC(C)N(C(=O)C12C3C4C5C3C1(C(=O)O)C5C42)C(C)C` (stereo not given), the TGI in experiment [1], in [2], in [3], in experiment [4], in [5] and in experiment [6] was over 100 µM each time. For the same molecule, the TGI in [7], in [8], in [9], in [10], in experiment [11] and in [12] was over 100 µM throughout. Besides, the TGI in experiment [13], in [14] and in experiment [15] was over 100 µM throughout.
`CCOC(=O)c1c(CN2CCNCC2)nc2ccc(Cl)cc2c1-c1ccccc1`: the TGI in experiment [1] was 4.05 µM; in experiment [2] it was 3.85 µM; in experiment [3], 9.43 µM; in experiment [4], 7.03 µM; in experiment [5], 6.68 µM; in [6] it was 24.7 µM. Also, the TGI in experiment [7] stood at 10.2 µM; in experiment [8], 21.3 µM; in experiment [9] it was 3.2 µM; in experiment [10], 9.69 µM; in experiment [11] it was 5.56 µM; in experiment [12], 12.3 µM. In addition, the TGI in experiment [16] came out at 15.5 µM; in experiment [13] it was 3.76 µM; in [14] it was 3.61 µM; in [15], 10.1 µM.
`Cc1cc(N(CCC#N)CCC#N)ccc1/C=C1N=C(/C=C\c2ccccc2)N(NC(=O)CC(=O)Nc2ccccc2Cl)C\1=O`: the TGI in experiment [1], in experiment [2], in [4], in experiment [5], in [7] and in [8] was over 100 µM throughout. The TGI in [9], in experiment [10], in experiment [12], in experiment [16], in [13] and in [14] was over 100 µM in each case. For the same molecule, in [15], the TGI is over 100 µM.
As for `CCc1cccc(C(C)C)c1NC(=O)/C(=N\NC(N)=O)C(C(=O)OC)c1cnc2ccccc2n1` (stereo not given), the TGI is 54.2 µM in experiment [1]; over 100 µM in [2]; over 100 µM in [3]; over 100 µM in [4]; over 100 µM in experiment [5]; over 100 µM in experiment [6]. For the same molecule, the TGI is 86.6 µM in [7]; over 100 µM in experiment [8]; over 100 µM in experiment [9]; over 100 µM in experiment [10]; over 100 µM in [11]; over 100 µM in experiment [12]. For the same molecule, the TGI is 98.2 µM in experiment [16], 62.7 µM in experiment [13], 32.4 µM in experiment [14] and over 100 µM in experiment [15].
For `Cc1cc(Cl)ccc1NC(=O)/C(=N\NC(C)(C)C)C(C#N)c1nc(-c2ccc([N+](=O)[O-])cc2)cs1` (stereo not given), the TGI in experiment [1], in experiment [2], in [3], in experiment [4], in [5] and in [6] was over 100 µM in each case. Moreover, the TGI in experiment [7], in experiment [8], in experiment [9], in experiment [10], in experiment [11] and in experiment [12] was over 100 µM in each case. Moreover, the TGI in experiment [16], in [13], in [14] and in experiment [15] was over 100 µM throughout.
As to `COC(=O)C(Cc1nc2ccc(Cl)cc2[nH]c1=O)C(=O)C(=O)Nc1cc(C)ccc1C` (stereo not given), the TGI in [1], in experiment [2], in [3], in [4], in experiment [5] and in experiment [6] was over 100 µM each time. Also, the TGI in [7], in [8], in experiment [9], in experiment [10], in [11] and in experiment [12] was over 100 µM in each case. The TGI in [16], in experiment [13], in experiment [14] and in experiment [15] was over 100 µM in each case.
On to `COc1cc([C@@H]2c3cc4c(cc3[C@@H](NCc3ccccc3F)C3COC(=O)[C@@H]32)OCO4)cc(OC)c1O` (stereo not given in full), for which the TGI in [1] was 28.3 µM; in [2] it was 13.6 µM; in experiment [4], 35.4 µM; in experiment [5], 19.8 µM; in experiment [6] it was over 100 µM; in [7], 21.9 µM. Moreover, the TGI is 9.45 µM in [8]; 88.2 µM in experiment [9]; 17.3 µM in experiment [10]; 21.2 µM in [11]; over 100 µM in [12]; over 100 µM in [16]. In addition, the TGI in experiment [13] was 4.43 µM; in experiment [14] it was 23.4 µM; in [15] it was over 100 µM.
As for `CC(=O)OCC12CC(CC1OC(C)=O)c1ccccc12` (stereo not given), the TGI in experiment [1], in experiment [2], in [4], in [5], in experiment [7] and in experiment [8] was over 100 µM each time. Further, the TGI in [9], in [10], in [11], in experiment [12], in [16] and in experiment [13] was over 100 µM each time. In experiment [14], this molecule showed a TGI of over 100 µM.
For `Cc1ccc(NC(=O)C2C3C=CC(O3)C2C(=O)O)cc1` (stereo not given), the TGI in [1], in experiment [2], in experiment [3], in experiment [4], in experiment [6] and in experiment [7] was over 100 µM throughout. Also, the TGI in [8], in experiment [9], in experiment [10], in [11], in [12] and in experiment [16] was over 100 µM in each case. Further, the TGI in [13], in experiment [14] and in experiment [15] was over 100 µM in each case.
